Target: T1, CCR-3 (Homo sapiens, UniProt P51677)
T1 sequence (P51677 1-355): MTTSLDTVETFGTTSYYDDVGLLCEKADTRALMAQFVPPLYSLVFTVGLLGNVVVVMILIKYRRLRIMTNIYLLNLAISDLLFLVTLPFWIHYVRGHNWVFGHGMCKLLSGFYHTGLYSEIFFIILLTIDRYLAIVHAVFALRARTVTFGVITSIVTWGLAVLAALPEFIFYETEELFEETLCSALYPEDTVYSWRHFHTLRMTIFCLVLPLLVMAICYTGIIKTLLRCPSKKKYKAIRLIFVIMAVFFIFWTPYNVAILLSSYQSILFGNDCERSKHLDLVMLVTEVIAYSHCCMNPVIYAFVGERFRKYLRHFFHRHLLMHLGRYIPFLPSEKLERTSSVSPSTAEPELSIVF
Test: Eotaxin-induced chemotaxis of CCR-3 transfectant cells (CCR3/U937)
Type: cell-based
Parameters: expressed in transfected cells; host or cells: U937
Conditions: 10 µM test compound; eotaxin 1 x 10^-9 M; CCR3/U937 cells (Table 3a)
Procedure: The inhibitory activity of the compounds against eotaxin-induced chemotaxis was determined by measuring the inhibition of migration of CCR-3 transfectant cells (CCR3/U937), using a minor modification of the method described by Ohashi, H. et al., Int Arch Allergy Immunol. […] The chemotaxis assay was performed in a 24-well culture plate. Human eotaxin suspended in assay medium was added to the wells at 1 x 10^-9 M along with test compounds at various concentrations. For a positive control, eotaxin was added to the wells without a test compound, and for a negative control, neither eotaxin nor a test compound was added to the wells. Chemotaxicell (Kurabo Co., Ltd.) having 5 micrometers pore size were inserted into each well and 100 micro liters of CCR-3 transfectant cells suspension were added to the top chamber. The plates were incubated at 37 °C for 1 hour. After incubation, migrated cells in lower wells were diluted and counted by particle size distribution analyzer (CDP-500, Sysmex Co., Ltd.).

| Compound | Chemotaxis Assay 10 µM (inhibition %) |
| --- | --- |
| CCN(CCCNC(=O)Nc1ccccc1)CCc1ccccc1 [Compound 11] | 86% |
| N#Cc1ccc(CN(CCCNC(=O)Nc2ccccc2)CCc2ccc(Cl)cc2)cc1 [Compound 16] | 63% |
| O=C(NCCCN(CCc1ccc(Cl)cc1)Cc1ccccc1)Nc1ccccc1 [Compound 28] | 76% |
| COC(=O)CCCN(CCCNC(=O)Nc1ccc(Br)cc1)C1CCCc2ccccc21 (centres unmarked) [Compound 29, methyl 4-[[3-(4-bromophenylureido)propyl](1,2,3,4-tetrahydro-1-naphthyl)amino]butylate] | 100% |
| COC(=O)CCCN(CCCNC(=O)Nc1ccc(Br)cc1)[C@H](C)c1ccccc1 [Compound 30, Methyl 4-[[3-(4-bromophenylureido)propyl][(1R)-1-phenylethyl]-amino]butylate] | 100% |
| COC(=O)CCCN(CCCCNC(=O)Nc1ccc(Br)cc1)C1CCCc2ccccc21 (centres unmarked) [Compound 32, Methyl 4-[[4-(4-bromophenylureido)butyl](1,2,3,4-tetrahydro-1-naphthyl)amino]butylate] | 99% |
| COC(=O)CCCN(CCCCCNC(=O)Nc1ccc(Br)cc1)C1CCCc2ccccc21 (centres unmarked) [Compound 33, Methyl 4-[[5-(4-bromophenylureido)penryl](1,2.3,4-tetrahvdro-1-naphthyl)amino]burylate] | 95% |
| COC(=O)CCCN(CCCNC(=O)Nc1ccc(C)cc1)C1CCCc2ccccc21 (centres unmarked) [Compound 34, Methyl 4-[[3-(4-methylphenylureido)propyl](1,2,3,4-tetrahydro-1-naphthyl)amino]butylate] | 96% |
| COC(=O)CCCN(CCCNC(=O)Nc1ccc(Cl)c(Cl)c1)C1CCCc2ccccc21 (centres unmarked) [Compound 35, Methyl 4-[[3-(3,4-dichlorophenylureido)propyl](1,2,3,4-tetrahydro-1-naphthyl)amino]burylate] | 100% |
| COC(=O)CCCN(CCCNC(=O)Nc1ccc(Br)cc1)Cc1ccccc1 [Compound 37] | 100% |
| COC(=O)CCCN(CCCNC(=O)Nc1ccc(Br)cc1)Cc1ccc2c(c1)OCO2 [Compound 40] | 88% |
| COC(=O)CCCN(CCCNC(=O)Nc1ccc(Br)cc1)CCc1ccccc1 [Compound 42] | 96% |
| COC(=O)CCCN(CCCNC(=O)Nc1ccc(Br)cc1)C(Cc1ccccc1)c1ccccc1 (centres unmarked) [Compound 45] | 62% |
| COC(=O)CCCN(CCCNC(=O)Nc1ccc(Br)cc1)Cc1ccncc1 [Compound 48] | 34% |
| COC(=O)CCCN(CCCNC(=O)Nc1cccc(Cl)c1)C1CCCc2ccccc21 (centres unmarked) [Compound 51] | 100% |
| COC(=O)CCCN(CCCNC(=O)Nc1ccc(Cl)c(C(F)(F)F)c1)C1CCCc2ccccc21 (centres unmarked) [Compound 53] | 93% |
| COC(=O)CCCN(CCCNC(=O)Nc1ccccc1-c1ccccc1)C1CCCc2ccccc21 (centres unmarked) [Compound 54] | 19% |
| COC(=O)CCCN(CCCNC(=O)Nc1ccccc1)C1CCCc2ccccc21 (centres unmarked) [Compound 56] | 100% |
| COC(=O)CCCN(CCCNC(=O)Nc1ccc(OC)cc1)C1CCCc2ccccc21 (centres unmarked) [Compound 57] | 100% |
| O=C(O)CCCN(CCCNC(=O)Nc1ccc(Br)cc1)Cc1cccs1 [Compound 69] | 81% |
| O=C(O)CCCN(CCCNC(=O)Nc1ccc(Br)cc1)Cc1ccc(C(F)(F)F)cc1 [Compound 71] | 64% |
| O=C(O)CCCN(CCCNC(=O)Nc1ccc(Br)cc1)CCc1ccccc1 [Compound 72] | 68% |
| O=C(O)CCCN(CCCNC(=O)Nc1ccc(Br)cc1)CCc1c[nH]c2ccccc12 [Compound 74] | 50% |
| O=C(O)CCCN(CCCNC(=O)Nc1ccc(Br)cc1)C(Cc1ccccc1)c1ccccc1 (centres unmarked) [Compound 75] | 68% |

More lines, now with the values ahead:

| Chemotaxis Assay 10 µM (inhibition %) | Compound |
| --- | --- |
| 99% | CCN(CCCCNC(=O)Nc1ccc([N+](=O)[O-])cc1)CCc1ccc(Cl)cc1 [Compound 5] |
| 99% | CCN(CCCCNC(=O)Nc1ccccc1)CCc1ccc(Cl)cc1 [Compound 7] |
| 94% | CCN(CCCCCNC(=O)Nc1ccccc1)CCc1ccc(Cl)cc1 [Compound 8] |
| 97% | CCCCN(CCCNC(=O)Nc1ccccc1)CCc1ccc(Cl)cc1 [Compound 14] |
| 100% | O=C(NCCCN(CCc1ccc(Cl)cc1)Cc1ccncc1)Nc1ccccc1 [Compound 24] |
| . 97% | COC(=O)CCCN(CCCNC(=O)Nc1ccc(Br)cc1)CCc1ccc(Cl)cc1 [Compound 31, Methyl 4-[[3-(4-bromophenylureido)pcopyl][2-(4-chlorophenyl)-ethyl]amino]butylate] |
| 100% | COC(=O)CCCN(CCCNC(=O)Nc1ccccc1)CCc1ccc(Cl)cc1 [Compound 49] |
| 100% | COC(=O)CCCN(CCCNC(=O)Nc1cccc(C)c1)C1CCCc2ccccc21 (centres unmarked) [Compound 52] |
| 38% | COC(=O)CCCN(CCCNC(=O)Nc1ccc(OC)cc1OC)C1CCCc2ccccc21 (centres unmarked) [Compound 55] |
| 100. % | COC(=O)CCCN(CCCNC(=O)Nc1ccc(Oc2ccccc2)cc1)C1CCCc2ccccc21 (centres unmarked) [Compound 58] |
| 87% | COC(=O)CCCN(CCCNC(=O)Nc1cccc2ccccc12)C1CCCc2ccccc21 (centres unmarked) [Compound 59] |
| 31% | O=C(O)CCCN(CCCNC(=O)Nc1ccc(Br)cc1)Cc1ccco1 [Compound 68] |
| 89% | O=C(O)CCCN(CCCNC(=O)Nc1ccc(Br)cc1)Cc1ccc2c(c1)OCO2 [Compound 70] |
| 44% | COc1ccc(CCN(CCCNC(=O)Nc2ccc(Br)cc2)CCCC(=O)O)cc1OC [Compound 73] |

Same assay, conditions: U-937; 10 µM test compound; eotaxin 1 x 10^-9 M; CCR3/U937 cells (Table 3a)

| Compound | inhibition at 10 µM [%] |
| --- | --- |
| CCN(CCCNC(=O)Nc1ccc(Cl)cc1)CCc1ccc(Cl)cc1 [Compound 6] | 100 |
| O=C(NCCCN(CCc1ccc(Cl)cc1)Cc1ccc(Cl)cc1)Nc1ccccc1 [Compound 17] | 51 |
| CC(C)(C)c1ccc(CN(CCCNC(=O)Nc2ccccc2)CCc2ccc(Cl)cc2)cc1 [Compound 19] | 47 |
| O=C(NCCCN(CCc1ccc(Cl)cc1)Cc1cnc2ccccc2c1)Nc1ccccc1 [Compound 20] | 26 |
| Cc1ccc(CN(CCCNC(=O)Nc2ccccc2)CCc2ccc(Cl)cc2)cc1 [Compound 21] | 40 |
| CCOC(=O)c1ccc(CN(CCCNC(=O)Nc2ccccc2)CCc2ccc(Cl)cc2)o1 [Compound 22] | 25 |
| O=C(NCCCN(CCc1ccc(Cl)cc1)Cc1cccnc1)Nc1ccccc1 [Compound 23] | 82 |
| O=C(NCCCN(CCc1ccccc1)CCc1ccc(Cl)cc1)Nc1ccccc1 [Compound 25] | 88 |
| CN(CCCNC(=O)Nc1ccccc1)CCc1ccc(Cl)cc1 [Compound 27] | 97 |
| COC(=O)CCCN(CCCNC(=O)Nc1ccc(Br)cc1)Cc1cccs1 [Compound 39] | 78 |
| COC(=O)CCCN(CCCNC(=O)Nc1ccc(Br)cc1)CCc1ccc(OC)c(OC)c1 [Compound 43] | 50 |
| O=C(O)CCCN(CCCCCNC(=O)Nc1ccc(Br)cc1)C1CCCc2ccccc21 (centres unmarked) [Compound 63, 4-[[5-(4-Bromophenylureido)pentyl](1,2,3,4-tetrahydro-1-naphthyl)-amino]butanoic acid] | 100 |
| Cc1ccc(NC(=O)NCCCN(CCCC(=O)O)C2CCCc3ccccc32)cc1 (centres unmarked) [Compound 64, 4-[[3-(4-Methylphenylureido)propyl](1,2,3,4-tetrahydro-1-naphthyl)-amino]butanoic acid] | 100 |

The next lines start with the values.

| inhibition at 10 µM [%] | Compound |
| --- | --- |
| 100 | CCN(CCCNC(=O)Nc1ccc([N+](=O)[O-])cc1)CCc1ccc(Cl)cc1 [Compound 2, N-(4-Nitrophenylcarbamoyl)-N'-[2-(4-chlorophenyl)ethyl]-N'-ethyl-1,3-diaminopropane] |
| 100 | CCN(CCCNC(=O)Nc1ccccc1OC)CCc1ccc(Cl)cc1 [Compound 9] |
| 99 | CCCN(CCCNC(=O)Nc1ccccc1)CCc1ccc(Cl)cc1 [Compound 10, N-Phenylcarbamoyl-N'-[2-(4-chlorophenyl)ethyl]-N'-propyl-1,3-diaminopropane] |
| 58 | COc1ccc(CN(CCCNC(=O)Nc2ccccc2)CCc2ccc(Cl)cc2)cc1 [Compound 18] |
| 98 | O=C(O)CCCN(CCCCNC(=O)Nc1ccc(Br)cc1)C1CCCc2ccccc21 (centres unmarked) [Compound 62, 4-[[4-(4-Bromophenylureido)butyl](1,2,3,4-tetrahydro-1-naphthyl)-amino]butanoic acid] |
